Values quoted from earlier work in the PKSmart pharmacokinetics tables (Seal et al. 2025).
Where a SMILES comes first, the peptide text is derived from it.

Assay: Lombardo, Berellini, Obach 2018, Drug Metab Dispos 46:1466, doi 10.1124/dmd.118.082966
Settings: human; for MRT / Vd / clearance / half-life: in vivo, iv; for fraction unbound: plasma

Row | SMILES | MRT [h] | Vd [L/kg] | clearance [L/h/kg] | half-life [h] | fraction unbound
1 | CCOC(Cc1ccc(OCCc2ccc(OS(C)(=O)=O)cc2)cc1)C(=O)O (configuration not stated) | 56 | 0.13 | 0.00234 | 45 | –
2 | CN(C)CCn1nnnc1SCC1=C(C(=O)O)N2C(=O)C(NC(=O)Cc3csc(N)n3)[C@H]2SC1 (some centres not stated) | 0.76 | 0.26 | 0.348 | 0.84 | 0.5
3 | CN1C[C@@H]2c3ccccc3Oc3ccc(Cl)cc3[C@H]2C1 | 30.9 | 23 | 0.744 | – | –
4 | CC(C)C1CCC(C(=O)NC(Cc2ccccc2)C(=O)O)CC1 (configuration not stated) | 1.4 | 0.15 | 0.108 | 1.5 | –
5 | CC1(C)S[C@@H]2C(NC(=O)Cc3ccccc3)C(=O)N2C1C(=O)O (some centres not stated) | 0.58 | 0.24 | 0.414 | 0.7 | 0.4
6 | N=C(N)N1CCC[C@@H](CNC(=O)CC(NS(=O)(=O)c2ccc3ccccc3c2)C(=O)N(CC(=O)O)C2CC2)C1 (some centres not stated) | 0.94 | 0.36 | – | 1.9 | 0.55
7 | O=S(=O)(Nc1ccccc1)c1cccc(/C=C/C(O)=NO)c1 | 0.6 | 0.8 | 1.42 | 1.6 | 0.06
8 | CN1CCN(C(c2ccccc2)c2ccccc2)CC1 | 15.5 | 16.5 | 0.87 | 13.5 | –
9 | O=[N+]([O-])OCC(CO[N+](=O)[O-])O[N+](=O)[O-] | – | – | 11.7 | – | –
10 | CNC(=O)Oc1ccc2c(c1)[C@@]1(C)CCN(C)[C@@H]1N2C | 0.9 | 3.9 | 4.32 | 1 | 0.64
11 | O=C(NCCNCC(O)COc1ccc(O)cc1)N1CCOCC1 (configuration not stated) | 3.6 | 0.64 | 0.18 | 7.7 | –
12 | CC(NC(=O)C(Cc1c[nH]c2ccccc12)NC(=O)C(N)Cc1cnc[nH]1)C(=O)NC(Cc1c[nH]c2ccccc12)C(=O)NC(Cc1ccccc1)C(=O)NC(CCCCN)C(N)=O (configuration not stated) (H-HWAWFK-NH2; configuration not given here) | 2.45 | 0.42 | 0.186 | 2.46 | –
13 | COC(=O)N(C)c1c(N)nc(-c2nn(Cc3ccccc3F)c3ncccc23)nc1N | 10 | 0.44 | 0.0444 | 9.1 | –
14 | CC1(C)[C@@H](O[C@H]2OC(C(=O)O)[C@@H](O)[C@H](O)[C@H]2O[C@@H]2OC(C(=O)O)[C@@H](O)[C@H](O)[C@H]2O)CC[C@]2(C)C3C(=O)C=C4C5C[C@@](C)(C(=O)O)CC[C@]5(C)CC[C@]4(C)[C@@]3(C)CC[C@@H]12 (some centres not stated) | 7.83 | 0.06 | 0.0078 | 8.83 | –
15 | CCC1C(=O)N(C)c2cnc(Nc3ccc(C(=O)NC4CCN(C)CC4)cc3OC)nc2N1C1CCCC1 (configuration not stated) | 31.3 | 31.2 | 1.03 | 40.1 | –
16 | COc1cc(Cc2cnc(N)nc2N)c2cc(Cc3c(C(=O)N(C)C)[nH]c4ccc(Cl)cc34)oc2c1OC | 11.3 | 5.06 | 0.449 | 44.5 | –
17 | Cc1ccccc1-c1cc(N2CCN(C)CC2)ncc1N(C)C(=O)C(C)(C)c1cc(C(F)(F)F)cc(C(F)(F)F)c1 | 32.6 | 5.54 | 0.17 | 34.3 | 0.003
18 | CO[C@H]1C[C@@H](O[C@@H]2C(C)C(=O)O[C@H](C)[C@H](C)[C@H](O)C(C)C(=O)[C@@]3(CO3)C[C@H](C)[C@H](O[C@H]3O[C@@H](C)C[C@@H](N(C)C)[C@H]3O)[C@H]2C)O[C@@H](C)[C@@H]1O (some centres not stated) | 1.41 | 0.77 | 0.546 | 1.05 | 0.4
19 | CC1=CC[C@@H](C(C)(C)O)C[C@@H]1O | 3.1 | 0.43 | 0.162 | 1.9 | –
20 | CC[C@]1(O)C[C@@H]2CN(CCc3c([nH]c4ccccc34)[C@@](C(=O)OC)(c3cc4c(cc3OC)N(C)[C@H]3[C@@](O)(C(=O)OC)[C@H](OC(C)=O)[C@]5(CC)C=CCN6CC[C@]43[C@@H]65)C2)C1 | 150 | 28 | – | 67 | –
21 | COc1ccc2cc1Oc1ccc(cc1)C[C@H]1c3cc(c(OC)cc3CCN1C)Oc1c(OC)c(OC)c(Br)c3c1[C@H](C2)N(C)CC3 | 88.2 | 51 | 0.576 | 59.4 | 0.22
22 | O=C(NCCN1CCOCC1)Nc1nc2ccc(Sc3nnc4ccc(-c5ccc(F)cc5)nn34)cc2s1 | 8.19 | 4.1 | 0.5 | 19.4 | –
23 | CN1CCN(c2ncc(-c3cc(Cl)cc(Cl)c3Cl)c(N)n2)CC1 | 12.3 | 15.3 | 1.25 | 11 | –

Row | SMILES | MRT [h] | Vd [L/kg] | clearance [L/h/kg] | half-life [h] | fraction unbound
24 | CN(CCCCCCN(C)C(=O)Oc1ccc[n+](C)c1)C(=O)Oc1ccc[n+](C)c1 | 82.4 | 1 | 0.012 | 59.8 | –
25 | CNCC[C@@H](O)[C@@H]1C[C@H](SC2=C(C(=O)O)N3C(=O)C([C@@H](C)O)[C@H]3[C@H]2C)CN1 (some centres not stated) | 2.04 | 0.22 | 0.121 | 1.48 | –
26 | Cn1c(=N)c(NC(=O)NCCN)cn1CC1=C(C(=O)O)N2C(=O)C(=NC(=O)C(NOC(C)(C)C(=O)O)c3nsc(N)n3)[C@H]2SC1 (some centres not stated) | 2.39 | 0.17 | 0.0696 | 2.58 | 0.81
27 | C[C@H](CCC(=O)O)[C@H]1CC[C@H]2[C@@H]3[C@H](O)C[C@@H]4C[C@H](O)CC[C@]4(C)[C@H]3CC[C@]12C | 0.57 | 0.19 | 0.342 | 1.42 | –
28 | CCCC[P@@](=O)(O)CCCN | – | – | 0.0936 | 2.1 | –
29 | CCC1=C(C)CN(C(=O)NCCc2ccc(S(=O)(=O)NC(=O)N[C@H]3CC[C@H](C)CC3)cc2)C1=O | – | 0.19 | 0.03 | 10 | –
30 | FC(F)(F)C(F)(F)C(F)(F)F | 0.05 | 1.6 | 35.4 | 0.02 | –
31 | O=[N+]([O-])O[C@H]1CO[C@H]2[C@@H]1OC[C@H]2O | 2.3 | 0.86 | 0.372 | 1.9 | –
32 | C=CC(=O)N1CCCC(n2nc(-c3ccc(Oc4ccccc4)cc3)c3c(N)ncnc32)C1 (configuration not stated) | – | – | – | – | 0.03
33 | CCN(CC)Cc1cc(Nc2ccnc3cc(Cl)ccc23)ccc1O | 1.34 | 17.4 | 13 | 2.1 | –
34 | O=C(O)c1cccc(Cc2cc(Cl)ccc2OCc2ccc(Cl)cc2F)n1 | 6.4 | 0.77 | 0.12 | 8.15 | –
35 | CCOc1ccccc1O[C@H](c1ccccc1)[C@H]1CNCCO1 | 13 | 0.65 | 0.0492 | 10 | –
36 | CCC(=O)OCC(=O)[C@@]1(OC(=O)CC)[C@@H](C)C[C@H]2[C@@H]3CC=C4CC(=O)C=C[C@]4(C)[C@@]3(Cl)[C@@H](O)C[C@@]21C | 0.1 | 0.29 | 2.16 | 0.5 | 0.13
37 | Cc1cccc(Cl)c1C(=O)NC(Cc1ccc(NC(=O)c2c(Cl)cncc2Cl)cc1)C(=O)O (configuration not stated) | 1.3 | 0.3 | 0.222 | 3.3 | 0.1
38 | Cc1cc(C)c2c(c1)[C@@H](N(Cc1cc(C(F)(F)F)cc(C(F)(F)F)c1)c1nnn(C)n1)CCCN2CC1CCC(C(=O)O)CC1 (some centres not stated) | 36.1 | 1.82 | 0.0504 | 51.9 | 0.001
39 | CCOC(=O)C(CCc1ccccc1)NC(C)C(=O)N1CC2(CC1C(=O)O)SCCS2 (configuration not stated) | 0.61 | 0.43 | 0.714 | 8.6 | –
40 | O[C@@H]1[C@@H](O)[C@@H](O)OC[C@H]1O | 1.9 | 0.23 | 0.143 | 1.2 | –
41 | COc1ccccc1N1CCN(C[C@@H](O)COc2cccc3ccccc23)CC1 | – | – | 0.66 | 3.3 | 0.008
42 | CC1CNc2c(cccc2S(=O)(=O)NC(CCCNC(=N)N)C(=O)N2CC[C@@H](C)CC2C(=O)O)C1 (some centres not stated) | 0.57 | 0.17 | 0.3 | 0.4 | 0.46
43 | C[C@H]1CCc2c(N3CCC(O)CC3)c(F)cc3c(=O)c(C(=O)O)cn1c23 | 7.87 | 0.25 | 0.0324 | 6.04 | –
44 | CN[C@@H]1[C@H](O)[C@H](NC)[C@H]2O[C@@]3(O)C(=O)C[C@@H](C)O[C@H]3O[C@@H]2[C@H]1O | 2.2 | 0.13 | 0.0594 | 1.8 | –
45 | CS(=O)(=O)c1ccc([C@@H](O)[C@@H](COC(=O)CN)NC(=O)C(Cl)Cl)cc1 | 0.23 | 0.13 | 0.576 | 0.28 | 0.27
46 | Nc1ccn([C@@H]2O[C@H](CO)C[C@@H]2F)c(=O)n1 | 1.9 | 0.7 | 0.366 | 1.8 | 1

Row | SMILES | MRT [h] | Vd [L/kg] | clearance [L/h/kg] | half-life [h] | fraction unbound
47 | CCN1C[C@H]2CN(C)C[C@@H](C1)C2OC(=O)c1ccc(Cl)cc1 (some centres not stated) | 8.8 | 9 | 1.02 | 8.6 | –
48 | COC(=O)c1ccc2c(C(=Nc3ccc(N(C)C(=O)CN4CCN(C)CC4)cc3)c3ccccc3)c(O)[nH]c2c1 | 12.6 | 15 | 1.19 | 9.5 | 0.02
49 | CCCC(=O)N1CCCN(c2nc(N)c3cc(OC)c(OC)cc3n2)CC1 | 2.5 | 0.72 | 0.288 | 2 | 0.06
50 | C=C1/C(=C\C=C2/CCC[C@]3(C)[C@@H]([C@H](C)CCCC(C)C)CC[C@@H]23)C[C@@H](O)C[C@@H]1O | – | – | 0.0492 | 48.6 | –
51 | CN(C)C/C=C(\c1ccc(Br)cc1)c1cccnc1 | 8.22 | 6.8 | 0.828 | 6.26 | 0.086
52 | CCn1cc(C(=O)O)c(=O)c2cc(F)c(N3CCNCC3)cc21 | 4.5 | 1.88 | 0.418 | 4.45 | 0.13
53 | O=c1ccc2ncc(=O)n3c2n1C[C@H]3CN1CCC(NCc2cc3c(cn2)OCCC3)CC1 | 4.86 | 2.7 | 0.554 | 12.6 | –
54 | NC(O)=NO | 4.8 | 0.52 | 0.09 | 3.4 | –
55 | CCCN[C@H]1CCc2nc(N)sc2C1 | 16.1 | 7 | 0.432 | 12.4 | 0.85
56 | O=P(O)(O)C(NC1CCCCCC1)P(=O)(O)O | 1.85 | 0.24 | 0.13 | 1.82 | 0.9
57 | COc1ccc2[nH]c3c(c2c1)CCN[C@]31CS[C@@H]2c3c(OC(C)=O)c(C)c4c(c3[C@H](COC1=O)N1[C@@H]2[C@H]2c3c(cc(C)c(OC)c3O)C[C@@H]([C@@H]1O)N2C)OCO4 | 44 | 7.3 | 0.166 | 50.7 | –
58 | CC(=O)[C@]1(O)Cc2c(O)c3c(c(O)c2[C@@H](O[C@H]2C[C@H](N4CC4)[C@H](OS(C)(=O)=O)[C@H](C)O2)C1)C(=O)c1ccccc1C3=O | 2.09 | 2.95 | 1.41 | 7.33 | 0.006
59 | CCCC(C)(COC(N)=O)COC(N)=O | 19 | 0.7 | 0.036 | 14 | 1
60 | Nc1nc(=O)c2nc(CNc3ccc(C(=O)NC(CCC(=O)O)C(=O)O)cc3)cnc2[nH]1 (configuration not stated) | 3.1 | 9.7 | 3.12 | 2.6 | 0.5
61 | CCC[C@@H]1CC(C(=O)N[C@@H]([C@H]2O[C@H](SC)[C@H](O)[C@@H](O)[C@H]2O)[C@@H](C)O)N(C)C1 (some centres not stated) | 7.5 | 1 | 0.126 | 5.6 | –
62 | CN1CC(C(=O)N[C@]2(C)O[C@@]3(O)[C@@H]4CCCN4C(=O)C(Cc4ccccc4)N3C2=O)C=C2c3cccc4[nH]cc(c34)C[C@H]21 (some centres not stated) | 4 | 3.6 | 0.9 | 2.1 | 0.02
63 | C[C@H]1COc2c(N3CCN(C)CC3)c(F)cc3c(=O)c(C(=O)O)cn1c23 | 11 | 1.2 | 0.114 | 8.8 | –
64 | CO[C@]1(NC(=O)CSC(F)F)C(=O)N2C(C(=O)O)=C(CSc3nnnn3CCO)CO[C@@H]21 | 0.77 | 0.19 | – | 0.6 | 0.64
65 | CSCCC(N)C(=O)NC(CCC(=O)O)C(=O)NC(Cc1cnc[nH]1)C(=O)NC(Cc1ccccc1)C(=O)NC(CCCN=C(N)N)C(=O)NC(Cc1c[nH]c2ccccc12)C(=O)NCC(=O)O (configuration not stated) | 0.01 | 0.73 | 52.3 | 0.06 | –
66 | CN1CCN2c3ncccc3Cc3ccccc3C2C1 (configuration not stated) | 8.8 | 4.2 | 0.48 | – | –
67 | O=C(/C=C/c1ccccc1)NCCO | 1.93 | 0.11 | 0.0594 | 1.35 | –
